As a reminder, the IC50 is the concentration that gives 50% inhibition.

Bridge positions count the residues as written; N and C are the ends. Square brackets hold non-standard residues; d marks the D form. Peptide text beside a SMILES is read from it. * marks the point of attachment. ξ: configuration not given here. Phe(4-COOH) = N[C@@H](Cc1ccc(C(=O)O)cc1)C(=O)O; Bip = N[C@@H](Cc1ccc(-c2ccccc2)cc1)C(=O)O; Phe(3-Me) = Cc1cccc(C[C@H](N)C(=O)O)c1; Cha = N[C@@H](CC1CCCCC1)C(=O)O; Cit = NC(=O)NCCC[C@H](N)C(=O)O; Thr(3ξ) = CC(O)[C@H](N)C(=O)O; Carboxymethyl = O=C(O)C*; Orn = NCCC[C@H](N)C(=O)O; Aun = NCCCCCCCCCCC(=O)O; Dab = NCC[C@H](N)C(=O)O

This experiment deals with T1, PD-1/PD-L1 interaction (PE-labeled human PD-L1-Ig binding to Jurkat cell line over-expressing human PD-1) (Homo sapiens, UniProt Q15116).
T1 construct: expressed in transfected cells; host or cells: Jurkat
T1 sequence (Q15116 25-288): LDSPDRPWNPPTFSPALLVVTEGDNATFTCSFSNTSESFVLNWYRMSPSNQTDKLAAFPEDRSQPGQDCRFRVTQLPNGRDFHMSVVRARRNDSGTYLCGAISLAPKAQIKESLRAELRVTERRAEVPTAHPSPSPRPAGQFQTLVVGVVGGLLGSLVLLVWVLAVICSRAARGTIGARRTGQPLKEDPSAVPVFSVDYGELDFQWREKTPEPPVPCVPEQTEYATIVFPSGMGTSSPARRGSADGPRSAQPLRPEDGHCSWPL
The experiment is described as follows: Jurkat-PD-1 Cell Binding High-Content Screening Assay (CBA). It counts as cell-based. The following applies: Jurkat cell line over-expressing human PD-1; PE-labeled PD-L1-Ig 20 nM final; read-out: Jurkat hPD1-PDL1 IC50. The method in brief: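 Jurkat-hPD-1 cells, DMEM/10% FCS; cpd 2 h 37° C; PE-PD-L1-Ig 20 nM final, 1 h; 4% PFA fix + Hoechst 33342, 3× dPBS wash; high-content imaging read-out.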
With `Cc1cccc(C[C@@H]2NC(=O)[C@H](CC(=O)O)NC(=O)[C@H](Cc3ccc(OCC(=O)O)cc3)NC(=O)[C@H](CCCNC(=N)N)NC(=O)CSC[C@@H](C(=O)N[C@@H](CCN)C(=O)NCCCCCCCCCCC(=O)O)NC(=O)[C@H](C(C)O)NC(=O)[C@H](C(C)C)NC(=O)[C@H](CC3CCCCC3)NC(=O)[C@H](CCN)NC(=O)[C@@H](CC(C)C)NC(=O)[C@H](CCCNC(N)=O)NC(=O)[C@H](Cc3ccc(OCC(=O)O)cc3)NC(=O)[C@H](Cc3ccc(-c4ccccc4)cc3)NC(=O)[C@H](Cc3ccc(OCC(=O)O)cc3)NC2=O)c1` (stereo partly drawn) [Compound 3486] ({CH2CO}-RY(Carboxymethyl)D[Phe(3-Me)]Y(Carboxymethyl)[Bip]Y(Carboxymethyl)[Cit][dL][Dab][Cha]V[Thr(3ξ)]C[Dab][Aun]-OH; thioether N-14), the IC50 stood at 0.0084 µM.
For `Cc1cccc(C[C@@H]2NC(=O)[C@H](CC(=O)O)NC(=O)[C@H](Cc3ccc(OCC(=O)O)cc3)NC(=O)[C@H](C(C)O)NC(=O)CSC[C@@H](C(=O)N[C@@H](CCN)C(=O)NCCCCCCCCCCC(=O)O)NC(=O)[C@H](C(C)O)NC(=O)[C@H](C(C)C)NC(=O)[C@H](CC3CCCCC3)NC(=O)[C@H](CCN)NC(=O)[C@@H](CC(C)C)NC(=O)[C@H](CCCNC(N)=O)NC(=O)[C@H](Cc3ccc(OCC(=O)O)cc3)NC(=O)[C@H](Cc3ccc(-c4ccccc4)cc3)NC(=O)[C@H](Cc3ccc(OCC(=O)O)cc3)NC2=O)c1` (stereo partly drawn) [Compound 3487] ({CH2CO}-[Thr(3ξ)]Y(Carboxymethyl)D[Phe(3-Me)]Y(Carboxymethyl)[Bip]Y(Carboxymethyl)[Cit][dL][Dab][Cha]V[Thr(3ξ)]C[Dab][Aun]-OH; thioether N-14) the value was 0.0306 µM.
As for `Cc1cccc(C[C@@H]2NC(=O)[C@H](CC(=O)O)NC(=O)[C@H](Cc3ccc(OCC(=O)O)cc3)NC(=O)[C@H](CCCNC(=N)N)NC(=O)CSC[C@@H](C(=O)N[C@H](CC(N)=O)C(=O)NCCCCCCCCCCC(=O)O)NC(=O)[C@H](C(C)O)NC(=O)[C@H](C(C)C)NC(=O)[C@H](CC3CCCCC3)NC(=O)[C@H](CCN)NC(=O)[C@@H](CC(C)C)NC(=O)[C@H](CCCN)NC(=O)[C@H](Cc3ccc(OCC(=O)O)cc3)NC(=O)[C@H](Cc3ccc(-c4ccccc4)cc3)NC(=O)[C@H](Cc3ccc(OCC(=O)O)cc3)NC2=O)c1` (stereo partly drawn) [Compound 3489] ({CH2CO}-RY(Carboxymethyl)D[Phe(3-Me)]Y(Carboxymethyl)[Bip]Y(Carboxymethyl)[Orn][dL][Dab][Cha]V[Thr(3ξ)]C[dN][Aun]-OH; thioether N-14), the IC50 was 0.022 µM.
`Cc1cccc(C[C@@H]2NC(=O)[C@H](CC(=O)O)NC(=O)[C@H](Cc3ccc(OCC(=O)O)cc3)NC(=O)[C@H](C(C)O)NC(=O)CSC[C@@H](C(=O)N[C@H](CC(N)=O)C(=O)NCCCCCCCCCCC(=O)O)NC(=O)[C@H](C(C)O)NC(=O)[C@H](C(C)C)NC(=O)[C@H](CC3CCCCC3)NC(=O)[C@H](CCN)NC(=O)[C@@H](CC(C)C)NC(=O)[C@H](CCCN)NC(=O)[C@H](Cc3ccc(OCC(=O)O)cc3)NC(=O)[C@H](Cc3ccc(-c4ccccc4)cc3)NC(=O)[C@H](Cc3ccc(OCC(=O)O)cc3)NC2=O)c1` (stereo partly drawn) [Compound 3490] ({CH2CO}-[Thr(3ξ)]Y(Carboxymethyl)D[Phe(3-Me)]Y(Carboxymethyl)[Bip]Y(Carboxymethyl)[Orn][dL][Dab][Cha]V[Thr(3ξ)]C[dN][Aun]-OH; thioether N-14): the IC50 is 0.0059 µM.
Take `Cc1cccc(C[C@@H]2NC(=O)[C@H](CC(=O)O)NC(=O)[C@H](Cc3ccc(OCC(=O)O)cc3)NC(=O)[C@H](CCCNC(=N)N)NC(=O)CSC[C@@H](C(=O)N[C@@H](CCN)C(=O)NCCCCCCCCCCC(=O)O)NC(=O)[C@H](C(C)O)NC(=O)[C@H](C(C)C)NC(=O)[C@H](CC3CCCCC3)NC(=O)[C@H](CCN)NC(=O)[C@@H](CC(C)C)NC(=O)[C@H](CCCN)NC(=O)[C@H](Cc3ccc(C(=O)O)cc3)NC(=O)[C@H](Cc3ccc(-c4ccccc4)cc3)NC(=O)[C@H](Cc3ccc(C(=O)O)cc3)NC2=O)c1` (stereo partly drawn) [Compound 3491] ({CH2CO}-RY(Carboxymethyl)D[Phe(3-Me)][Phe(4-COOH)][Bip][Phe(4-COOH)][Orn][dL][Dab][Cha]V[Thr(3ξ)]C[Dab][Aun]-OH; thioether N-14): the IC50 turned out to be 0.0114 µM.
Regarding `Cc1cccc(C[C@@H]2NC(=O)[C@H](CC(=O)O)NC(=O)[C@H](Cc3ccc(OCC(=O)O)cc3)NC(=O)[C@H](C(C)O)NC(=O)CSC[C@@H](C(=O)N[C@H](CC(N)=O)C(=O)NCCCCCCCCCCC(=O)O)NC(=O)[C@H](C(C)O)NC(=O)[C@H](C(C)C)NC(=O)[C@H](CC3CCCCC3)NC(=O)[C@H](CCN)NC(=O)[C@@H](CC(C)C)NC(=O)[C@H](CCCN)NC(=O)[C@H](Cc3ccc(OCC(=O)O)cc3)NC(=O)[C@H](Cc3ccc(-c4ccccc4)cc3)NC(=O)[C@H](C(C)C)NC2=O)c1` (stereo partly drawn) [Compound 3493] ({CH2CO}-[Thr(3ξ)]Y(Carboxymethyl)D[Phe(3-Me)]V[Bip]Y(Carboxymethyl)[Orn][dL][Dab][Cha]V[Thr(3ξ)]C[dN][Aun]-OH; thioether N-14), the IC50 was found to be 0.0098 µM.
For `CC(=O)NCCCC[C@@H]1NC(=O)[C@H](Cc2ccc(OCC(=O)O)cc2)NC(=O)[C@H](Cc2ccc(-c3ccccc3)cc2)NC(=O)[C@H](Cc2ccc(OCC(=O)O)cc2)NC(=O)[C@H](Cc2cccc(C)c2)NC(=O)[C@H](CC(=O)O)NC(=O)[C@H](Cc2ccc(OCC(=O)O)cc2)NC(=O)[C@H](C(C)O)NC(=O)CSC[C@@H](C(=O)N[C@@H](CCN)C(=O)NCCCCCCCCCCC(=O)O)NC(=O)[C@H](C(C)O)NC(=O)[C@H](C(C)C)NC(=O)[C@H](CC2CCCCC2)NC(=O)[C@H](CCN)NC(=O)[C@@H](CC(C)C)NC1=O` (stereo partly drawn) [Compound 3495] ({CH2CO}-[Thr(3ξ)]Y(Carboxymethyl)D[Phe(3-Me)]Y(Carboxymethyl)[Bip]Y(Carboxymethyl)K(Ac)[dL][Dab][Cha]V[Thr(3ξ)]C[Dab][Aun]-OH; thioether N-14) the value was 0.0168 µM.
For `CC(=O)NCCCC[C@@H]1NC(=O)[C@H](Cc2ccc(OCC(=O)O)cc2)NC(=O)[C@H](Cc2ccc(-c3ccccc3)cc2)NC(=O)[C@H](Cc2ccc(OCC(=O)O)cc2)NC(=O)[C@H](Cc2cccc(C)c2)NC(=O)[C@H](CC(=O)O)NC(=O)[C@H](Cc2ccc(OCC(=O)O)cc2)NC(=O)[C@H](CCCNC(=N)N)NC(=O)CSC[C@@H](C(=O)N[C@@H](CCN)C(=O)NCCCCCCCCCCC(=O)O)NC(=O)[C@H](C(C)O)NC(=O)[C@H](C(C)C)NC(=O)[C@H](CC2CCCCC2)NC(=O)[C@H](CCN)NC(=O)[C@@H](CC(C)C)NC1=O` (stereo partly drawn) [Compound 3496] ({CH2CO}-RY(Carboxymethyl)D[Phe(3-Me)]Y(Carboxymethyl)[Bip]Y(Carboxymethyl)K(Ac)[dL][Dab][Cha]V[Thr(3ξ)]C[Dab][Aun]-OH; thioether N-14) the value was 0.011 µM.
For `Cc1cccc(C[C@@H]2NC(=O)[C@H](CC(=O)O)NC(=O)[C@H](Cc3ccc(OCC(=O)O)cc3)NC(=O)[C@H](C(C)O)NC(=O)CSC[C@@H](C(=O)N[C@H](CC(N)=O)C(=O)NCCCCCCCCCCC(=O)O)NC(=O)[C@H](CCN)NC(=O)[C@H](C(C)C)NC(=O)[C@H](CC3CCCCC3)NC(=O)[C@H](CCN)NC(=O)[C@@H](CC(C)C)NC(=O)[C@H](CCCN)NC(=O)[C@H](Cc3ccc(OCC(=O)O)cc3)NC(=O)[C@H](Cc3ccc(-c4ccccc4)cc3)NC(=O)[C@H](Cc3ccc(OCC(=O)O)cc3)NC2=O)c1` (stereo partly drawn) [Compound 3497] ({CH2CO}-[Thr(3ξ)]Y(Carboxymethyl)D[Phe(3-Me)]Y(Carboxymethyl)[Bip]Y(Carboxymethyl)[Orn][dL][Dab][Cha]V[Dab]C[dN][Aun]-OH; thioether N-14) the value was 0.0036 µM; for `Cc1cccc(C[C@@H]2NC(=O)[C@H](CC(=O)O)NC(=O)[C@H](Cc3ccc(OCC(=O)O)cc3)NC(=O)[C@H](CCCNC(=N)N)NC(=O)CSC[C@@H](C(=O)N[C@H](CC(N)=O)C(=O)NCCCCCCCCCCC(=O)O)NC(=O)[C@H](C(C)O)NC(=O)[C@H](C(C)C)NC(=O)[C@H](CC3CCCCC3)NC(=O)[C@H](CCN)NC(=O)[C@@H](CC(C)C)NC(=O)[C@H](CCCNC(N)=O)NC(=O)[C@H](Cc3ccc(OCC(=O)O)cc3)NC(=O)[C@H](Cc3ccc(-c4ccccc4)cc3)NC(=O)[C@H](Cc3ccc(OCC(=O)O)cc3)NC2=O)c1` (stereo partly drawn) [Compound 3498] ({CH2CO}-RY(Carboxymethyl)D[Phe(3-Me)]Y(Carboxymethyl)[Bip]Y(Carboxymethyl)[Cit][dL][Dab][Cha]V[Thr(3ξ)]C[dN][Aun]-OH; thioether N-14), 0.0472 µM; for `Cc1cccc(C[C@@H]2NC(=O)[C@H](CC(=O)O)NC(=O)[C@H](Cc3ccc(OCC(=O)O)cc3)NC(=O)[C@H](C(C)O)NC(=O)CSC[C@@H](C(=O)N[C@H](CC(N)=O)C(=O)NCCCCCCCCCCC(=O)O)NC(=O)[C@H](C(C)O)NC(=O)[C@H](C(C)C)NC(=O)[C@H](CC3CCCCC3)NC(=O)[C@H](CCN)NC(=O)[C@@H](CC(C)C)NC(=O)[C@H](CCCNC(N)=O)NC(=O)[C@H](Cc3ccc(OCC(=O)O)cc3)NC(=O)[C@H](Cc3ccc(-c4ccccc4)cc3)NC(=O)[C@H](Cc3ccc(OCC(=O)O)cc3)NC2=O)c1` (stereo partly drawn) [Compound 3499] ({CH2CO}-[Thr(3ξ)]Y(Carboxymethyl)D[Phe(3-Me)]Y(Carboxymethyl)[Bip]Y(Carboxymethyl)[Cit][dL][Dab][Cha]V[Thr(3ξ)]C[dN][Aun]-OH; thioether N-14), 0.015 µM.
Take `Cc1cccc(C[C@@H]2NC(=O)[C@H](CC(=O)O)NC(=O)[C@H](Cc3ccc(OCC(=O)O)cc3)NC(=O)[C@H](C(C)O)NC(=O)CSC[C@@H](C(=O)N[C@H](CC(N)=O)C(=O)NCCCCCCCCCCC(=O)O)NC(=O)[C@H](C(C)O)NC(=O)[C@H](C(C)C)NC(=O)[C@H](CC3CCCCC3)NC(=O)[C@H](CCN)NC(=O)[C@@H](CC(C)C)NC(=O)[C@H](CCCN)NC(=O)[C@H](Cc3ccc(C(=O)O)cc3)NC(=O)[C@H](Cc3ccc(-c4ccccc4)cc3)NC(=O)[C@H](Cc3ccc(C(=O)O)cc3)NC2=O)c1` (stereo partly drawn) [Compound 3500] ({CH2CO}-[Thr(3ξ)]Y(Carboxymethyl)D[Phe(3-Me)][Phe(4-COOH)][Bip][Phe(4-COOH)][Orn][dL][Dab][Cha]V[Thr(3ξ)]C[dN][Aun]-OH; thioether N-14): the IC50 came to 0.0052 µM.

The values are drawn from patent US20260022142A1, “MACROCYCLIC IMMUNOMODULATORS” (Bristol-Myers Squibb Company, priority 2022, published 2026).
